What follows are compounds tested against RORγ (Homo sapiens (Human), UniProt P51449) (assay: RORγ Reporter Assay (Gal4)). Conditions: HEK293 cells co-transfected with RORγ LBD-Gal4 and luciferase reporter; 24 h incubation; absolute IC50.
Sequence of RORγ (P51449 269-508): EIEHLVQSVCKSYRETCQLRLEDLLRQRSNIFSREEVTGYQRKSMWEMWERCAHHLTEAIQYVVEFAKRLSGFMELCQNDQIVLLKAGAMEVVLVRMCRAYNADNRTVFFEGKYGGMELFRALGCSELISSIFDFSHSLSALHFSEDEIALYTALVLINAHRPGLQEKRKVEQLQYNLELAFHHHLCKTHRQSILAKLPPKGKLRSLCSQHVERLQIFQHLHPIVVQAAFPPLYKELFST
Assay type: cell-based
Description: The activity of the compounds was evaluated using a RORγ Reporter assay (also referred to as Gal4 assay). The Gal4 and the Th17 assays (another suitable assay) are both cell-based assays monitoring functional activity of the compound assayed. The HEK293 cell line is co-transfected transiently with two plasmids, one with the RORγ ligand-binding domain fused to galactose-responsive transcription factor (Gal4), and the other with the luciferase reporter gene and Gal binding sites (UAS). This construction allows to determine the RORγ activity in a cellular system through the measurement of luminescence. […] Media formulation consisted in DMEM/F-12 medium (Gibco) supplemented with 10% heat inactivated FBS (Sigma-Aldrich), non-essential aminoacids (Sigma-Aldrich), 2 mM Glutamax (Gibco) and 100 U/mL penicillin (Sigma-Aldrich). Dose-response curves with compounds were prepared in 100% DMSO and further diluted […] in culture medium. Compound solutions were added to the plate containing cells (final DMSO concentration of 0.1%) and incubated for 24 h at 37° C. and 5% CO2. Luciferase detection reagent was added to each well, and relative light units (RLUs) were quantified from each assay well using a plate reading luminometer. Values of average RLU±S.D. were computed for all treatment sets, followed by the calculations of percent-reduction of RORγ activity in response to respective test compound. The following formula was used: activity=100*[1−[x test compound/average vehicle where the theoretical minimum reduction (0% reduction).
For `NC(=O)CN1CC[C@@H](CNc2ncnc(N(C[C@H]3CC[C@H](C(F)(F)F)CC3)C3CCC3)c2F)[C@H](O)C1` (racemic) [Example A6-5, 2-((3RS,4RS)-4-(((6-(cyclobutyl(((1r,4R)-4-(trifluoromethyl)cyclohexyl)methyl)amino)-5-fluoropyrimidin-4-yl)amino)methyl)-3-hydroxypiperidin-1-yl)acetamide], the IC50 was 17 nM. Compound `CCN(C[C@H]1CC[C@]2(CC1)CC2(F)F)c1ncnc(NC[C@@H]2CCN(CC(N)=O)C[C@H]2O)c1F` (relative stereo) [Example A6-1-1-1, rel-2-((3R,4R)-4-(((6-(((1,1-Difluorospiro[2.5]octan-6-yl)methyl)(ethyl)amino)-5-fluoropyrimidin-4-yl)amino)methyl)-3-hydroxypiperidin-1-yl)acetamide] has an IC50 of 35 nM. Work on `CCN(CC1CCC2(CC1)CC2(F)F)c1ncnc(NC[C@H]2CCN(CC(N)=O)C[C@@H]2O)c1F` (relative stereo) [Example A6-1-1-2, rel-2-((3R,4R)-4-(((6-(((1,1-Difluorospiro[2.5]octan-6-yl)methyl)(ethyl)amino)-5-fluoropyrimidin-4-yl)amino)methyl)-3-hydroxypiperidin-1-yl)acetamide] yielded an IC50 of 44 nM. `CCN(C[C@H]1CC[C@H](C(F)(F)F)CC1)c1ncnc(NC[C@@]2(O)CCN(CC(N)=O)C[C@@H]2O)c1F` (single isomer, unassigned) [AD-6-1, 2-((3R*,4R*)-4-(((6-(ethyl(((1r,4R)-4-(trifluoromethyl)cyclohexyl)methyl)amino)-5-fluoropyrimidin-4-yl)amino)methyl)-3,4-dihydroxypiperidin-1-yl)acetamide] was tested, and the IC50 was 1.2 nM. `CCN(C[C@H]1CC[C@H](C(F)(F)F)CC1)c1ncnc(NC[C@@]2(O)CCN(CC(N)=O)C[C@@H]2O)c1F` (single isomer, unassigned) [AD-6-2, 2-((3R*,4R*)-4-(((6-(ethyl(((1r,4R)-4-(trifluoromethyl)cyclohexyl)methyl)amino)-5-fluoropyrimidin-4-yl)amino)methyl)-3,4-dihydroxypiperidin-1-yl)acetamide] gave an IC50 of 15 nM. Compound `CCN(C[C@H]1CC[C@H](C(F)(F)F)CC1)c1ncnc2c1ccn2C[C@]1(O)CCN(CC(N)=O)C[C@H]1O` (single isomer, unassigned) [BD-5-1-1, 2-((3R*,4R*)-4-((4-(ethyl(((1r,4R)-4-(trifluoromethyl)cyclohexyl)methyl)amino)-7H-pyrrolo[2,3-d]pyrimidin-7-yl)methyl)-3,4-dihydroxypiperidin-1-yl)acetamide] has an IC50 of 3.3 nM. `CCN(C[C@H]1CC[C@H](C(F)(F)F)CC1)c1ncnc2c1ccn2C[C@]1(O)CCN(CC(N)=O)C[C@H]1O` (single isomer, unassigned) [BD-5-1-2, 2-((3R*,4R*)-4-((4-(ethyl(((1r,4R)-4-(trifluoromethyl)cyclohexyl)methyl)amino)-7H-pyrrolo[2,3-d]pyrimidin-7-yl)methyl)-3,4-dihydroxypiperidin-1-yl)acetamide] was tested, and the IC50 was 4.3 nM. With `CCN(C[C@H]1CC[C@@]2(CC1)CC2(F)F)c1ncnc(NC[C@@H]2CCN(CC(N)=O)C[C@H]2O)c1F` (single isomer, unassigned) [Example A6-1-2-1] the IC50 was 49 nM. Work on `CCN(CC1CCC2(CC1)COC2)c1ncnc(NC[C@@H]2CCN(CC(N)=O)C[C@H]2O)c1F` (single isomer, unassigned) [Example A6-6-1] yielded an IC50 of 690 nM. With `CCN(CC1CCC2(CC1)COC2)c1ncnc(NC[C@@H]2CCN(CC(N)=O)C[C@H]2O)c1F` (single isomer, unassigned) [Example A6-6-2] the IC50 was 980 nM. `CCN(CC1(F)CCC(C(F)(F)F)CC1)c1ncnc(NC[C@@H]2CCN(CC(N)=O)C[C@H]2O)c1F` (single isomer, unassigned) [Example A6-7-1] gave an IC50 of 43 nM. For `CCN(CC1(F)CCC(C(F)(F)F)CC1)c1ncnc(NC[C@@H]2CCN(CC(N)=O)C[C@H]2O)c1F` (single isomer, unassigned) [Example A6-7-2], the IC50 was 69 nM.

The compounds below were run on plasma IL-17A (assay: In vivo IL-17A induction in anti-CD3 model in mice). Conditions: male C57BL/6JRj mice, anti-CD3e induced plasma IL-17A, oral gavage twice daily day 0 to day 3, 3 mg/kg.
Description: Compounds disclosed herein have also been evaluated in a mouse in vivo pharmacodynamic model (anti-CD3-induced plasma IL-17A).
Male C57BL/6JRj mice (7 week old) were purchased from Janvier Labs and housed at the animal facilities of Almirall throughout the study. Animals were allowed to condition for 5 days in their new environment at 22° C.±2° C., 55%±10% relative humidity and 12 h:12 h light:dark cycles. Animals were housed in polycarbonate cages, with free access to water and non-purified stock diet (2014 Teklad Global 14% Protein Rodent Maintenance Diet, Envigo) during the full course of the studies. […]
Mice were injected intraperitoneally with 7.5 μg of anti-CD3e (Clone 145-2C11 from Pharmingen BD) at 0 h (day 0) and 48 h (day 3) time-points. […] Plasma levels of IL-17A were measured by ELISA (R&D Systems) according to the manufacturer's instruction. Results were calculated as the percentage of reduction of plasma IL-17A versus the difference between non-induced and anti-CD3e induced groups through the formula: inhibition=100*[1−[(x−mean non-induced)/(mean control vehicle−mean non-induced)]]. The IL-17A inhibition for each treatment can be expressed as the mean for each treatment group±S.E.M. Statistical analysis of data were conducted with one-way ANOVA followed by Dunnett's multiple comparisons test when appropriate. […]
For `CCN(C[C@H]1CC[C@H](C(F)(F)F)CC1)c1ncnc(NC[C@@]2(O)CCN(CC(N)=O)C[C@@H]2O)c1F` (single isomer, unassigned) [AD-6-1, 2-((3R*,4R*)-4-(((6-(ethyl(((1r,4R)-4-(trifluoromethyl)cyclohexyl)methyl)amino)-5-fluoropyrimidin-4-yl)amino)methyl)-3,4-dihydroxypiperidin-1-yl)acetamide], the “Inhibition of IL-17A (%) at 3 mg/kg” value was 95%.

— patent US11613532B2, “Compounds active towards nuclear receptors” (NUEVOLUTION A/S, priority 2020, dated 2023)
